Data from the supplement of paper PMC11451515.

System: NOMO1
Test: cell viability relative to DMSO control; higher = less cytotoxic
Settings: 48 h
Outline: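 NOMO1, SEM and P12-Ichikawa leukemia cells spent at least four passages adapting to each medium before use. They were seeded at 500 cells/well (NOMO1, SEM) or 1000 cells/well (P12-Ichikawa) in 5 μl in 1536-well plates and pin-dosed with library compounds in DMSO at 11 threefold steps from 47 μM down to 0.79 nM. After 48 h at 37°C, CellTiter-Glo One luminescence was read. Viability is reported as a percentage of the DMSO wells on each plate, with cell-free wells as background.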

[1] = HPLM + 10% dialyzed FBS, 0.000781 µM
[2] = HPLM + 10% dialyzed FBS, 0.00234 µM
[3] = HPLM + 10% dialyzed FBS, 0.00702 µM
[4] = HPLM + 10% dialyzed FBS, 0.0211 µM
[5] = HPLM + 10% dialyzed FBS, 0.0632 µM
[6] = HPLM + 10% dialyzed FBS, 0.19 µM
[7] = HPLM + 10% dialyzed FBS, 0.569 µM
[8] = HPLM + 10% dialyzed FBS, 1.71 µM
[9] = HPLM + 10% dialyzed FBS, 5.12 µM
[10] = HPLM + 10% dialyzed FBS, 15.4 µM
[11] = HPLM + 10% dialyzed FBS, 46.1 µM
[12] = RPMI 5 mM glucose + 10% FBS, 0.000781 µM
[13] = RPMI 5 mM glucose + 10% FBS, 0.00234 µM
[14] = RPMI 5 mM glucose + 10% FBS, 0.00702 µM
[15] = RPMI 5 mM glucose + 10% FBS, 0.0211 µM
[16] = RPMI 5 mM glucose + 10% FBS, 0.0632 µM
[17] = RPMI 5 mM glucose + 10% FBS, 0.19 µM
[18] = RPMI 5 mM glucose + 10% FBS, 0.569 µM
[19] = RPMI 5 mM glucose + 10% FBS, 1.71 µM
[20] = RPMI 5 mM glucose + 10% FBS, 5.12 µM
[21] = RPMI 5 mM glucose + 10% FBS, 15.4 µM
[22] = RPMI 5 mM glucose + 10% FBS, 46.1 µM
[23] = RPMI 5 mM glucose + 10% dialyzed FBS, 0.000781 µM
[24] = RPMI 5 mM glucose + 10% dialyzed FBS, 0.00234 µM
[25] = RPMI 5 mM glucose + 10% dialyzed FBS, 0.00702 µM
[26] = RPMI 5 mM glucose + 10% dialyzed FBS, 0.0211 µM
[27] = RPMI 5 mM glucose + 10% dialyzed FBS, 0.0632 µM
[28] = RPMI 5 mM glucose + 10% dialyzed FBS, 0.19 µM
[29] = RPMI 5 mM glucose + 10% dialyzed FBS, 0.569 µM
[30] = RPMI 5 mM glucose + 10% dialyzed FBS, 1.71 µM
[31] = RPMI 5 mM glucose + 10% dialyzed FBS, 5.12 µM
[32] = RPMI 5 mM glucose + 10% dialyzed FBS, 15.4 µM
[33] = RPMI 5 mM glucose + 10% dialyzed FBS, 46.1 µM

Row | SMILES | cell viability [1] | cell viability [2] | cell viability [3] | cell viability [4] | cell viability [5] | cell viability [6] | cell viability [7] | cell viability [8] | cell viability [9] | cell viability [10] | cell viability [11] | cell viability [12] | cell viability [13] | cell viability [14] | cell viability [15] | cell viability [16] | cell viability [17] | cell viability [18] | cell viability [19] | cell viability [20] | cell viability [21] | cell viability [22] | cell viability [23] | cell viability [24] | cell viability [25] | cell viability [26] | cell viability [27] | cell viability [28] | cell viability [29] | cell viability [30] | cell viability [31] | cell viability [32] | cell viability [33]
1 | C[C@]12CC[C@H]3[C@@H](CC[C@H]4NC(=O)\C=C/[C@]34C)[C@@H]1CC[C@@H]2C(=O)NC5=CC(=CC=C5C(F)(F)F)C(F)(F)F | 123% | 123% | 122% | 118% | 123% | 114% | 101% | 118% | 107% | 96.1% | 94.7% | 117% | 125% | 114% | 100% | 111% | 109% | 112% | 112% | 107% | 96.3% | 98.8% | 105% | 120% | 105% | 118% | 104% | 111% | 111% | 103% | 94.9% | 103% | 96.9%
2 | CN1CCN(C2=Nc3cc(Cl)ccc3Nc3ccccc32)CC1 | 103% | 100% | 110% | 111% | 116% | 119% | 113% | 132% | 112% | 106% | 59.3% | 98.6% | 94.3% | 102% | 98.4% | 107% | 101% | 103% | 96.3% | 106% | 106% | 102% | 87.5% | 99.6% | 99.7% | 90.1% | 115% | 106% | 110% | 99.3% | 103% | 97.9% | 78.4%
3 | CN[C@@H](C)[C@H]1[C@H](O)C[C@@]2(C)[C@@H]3CC[C@H]4C(C)(C)[C@@H](NC)CC[C@@]45C[C@@]35CC[C@]12C | 81.4% | 102% | 81.7% | 108% | 89.8% | 93.7% | 105% | 95.2% | 82.6% | 105% | 70.9% | 85.4% | 94.5% | 91.6% | 94.3% | 102% | 102% | 95% | 94.8% | 93.9% | 95.7% | 92.5% | 86.4% | 87.8% | 101% | 99.6% | 104% | 95.6% | 93.1% | 91.7% | 86.1% | 99.6% | 72.1%
4 | CNc1nc(Nc2ccc(C(=O)N3CCOCC3)cc2OC)ncc1Cl | – | – | – | – | – | – | – | – | – | – | – | 103% | 121% | 119% | 109% | 106% | 114% | 111% | 112% | 99.8% | 106% | 90.9% | – | – | – | – | – | – | – | – | – | – | –
5 | CCN(CC)CCOc1ccc(/C(=C(\Cl)c2ccccc2)c2ccccc2)cc1 | 124% | 123% | 130% | 136% | 150% | 134% | 130% | 134% | 109% | 122% | 102% | – | – | – | – | – | – | – | – | – | – | – | – | – | – | – | – | – | – | – | – | – | –
6 | S=C(NCc1ccc2c(c1)OCO2)N1CCN(c2ncnc3c2oc2ccccc23)CC1 | 110% | 113% | 124% | 104% | 105% | 98.2% | 113% | 105% | 75.7% | 64.1% | 9.67% | 117% | 120% | 116% | 110% | 114% | 111% | 109% | 98.2% | 104% | 80% | 26.2% | 116% | 106% | 119% | 107% | 112% | 107% | 112% | 97.1% | 95.8% | 89% | 48.8%
7 | C[C@](Cc1c[nH]c2ccccc12)(NC(=O)OC1C2CC3CC(C2)CC1C3)C(=O)NC[C@H](NC(=O)CCC(=O)O)c1ccccc1 (stereo partly drawn) | 123% | 94% | 130% | 135% | 148% | 142% | 134% | 145% | 157% | 154% | 141% | 114% | 128% | 120% | 126% | 120% | 127% | 125% | 126% | 151% | 153% | 147% | 106% | 123% | 120% | 132% | 132% | 133% | 153% | 129% | 139% | 147% | 153%
8 | CNCC(O)c1ccc(O)cc1 (stereo not drawn) | 114% | 106% | 116% | 103% | 116% | 125% | 129% | 109% | 128% | 113% | 134% | 96.7% | 104% | 118% | 116% | 112% | 103% | 125% | 118% | 127% | 120% | 121% | 106% | 122% | 109% | 119% | 104% | 118% | 108% | 113% | 125% | 130% | 120%
9 | Cc1nn(Cc2ccccc2Cl)c(C)c1CN(C)CC(O)COc1ccc(Cl)cc1 (stereo not drawn) | 106% | 101% | 98% | 97.7% | 99.7% | 103% | 108% | 106% | 85.8% | 83.1% | 22.5% | 100% | 92.9% | 89.1% | 90.4% | 90.5% | 94.1% | 99.5% | 93.7% | 90.8% | 85.6% | 34.5% | 94.7% | 101% | 110% | 101% | 106% | 99.4% | 100% | 94.4% | 83.9% | 75.3% | 27.2%
